Species: Rattus norvegicus
Experiment: Open TG-GATES - Regimen: Single
Assay type: toxicity, organism-based, Sprague-Dawley
Design: regimen Single, gender Male, age 6 weeks
Conditions: in vivo, po, route gavage; for APTT / Bas / Eos / Fbg / Hb / Lym / MCH / MCHC / MCV / Mono / PT / Plat / RBC / Ret / WBC / Ht / Neu: tissue Blood; for KIDNEY_L / KIDNEY_R / KIDNEY_TOTAL: tissue Kidney; for LIVER: tissue Liver
[1] = 60 mg/kg, 24 h, tissue Plasma, dose level Low
[2] = 200 mg/kg, 3 h, dose level Middle
[3] = 200 mg/kg, 3 h, tissue Plasma, dose level Middle
[4] = 200 mg/kg, 6 h, dose level Middle
[5] = 200 mg/kg, 6 h, tissue Plasma, dose level Middle
[6] = 200 mg/kg, 9 h, dose level Middle
[7] = 200 mg/kg, 9 h, tissue Plasma, dose level Middle
[8] = 200 mg/kg, 24 h, dose level Middle
[9] = 200 mg/kg, 24 h, tissue Plasma, dose level Middle
[10] = 400 mg/kg, 3 h, dose level High
[11] = 400 mg/kg, 3 h, tissue Plasma, dose level High
[12] = 400 mg/kg, 6 h, dose level High
[13] = 400 mg/kg, 6 h, tissue Plasma, dose level High
[14] = 400 mg/kg, 9 h, dose level High
[15] = 400 mg/kg, 9 h, tissue Plasma, dose level High
[16] = 400 mg/kg, 24 h, dose level High
[17] = 400 mg/kg, 24 h, tissue Plasma, dose level High

Structure (SMILES): CC(C)Cc1ccc(C(C)C(=O)O)cc1 (stereo not drawn) [IBUPROFEN]
- TG [1]: 83.2 mg/dL
- TP [1]: 5.5 g/dL
- gamma-GTP [1]: 1.4 IU/L
- TERMINAL_BW [2]: 203.6 g
- APTT [2]: 21.7 s
- Bas [2]: 0%
- Eos [2]: 0.8%
- Fbg [2]: 294 mg/dL
- Hb [2]: 13 g/dL
- Lym [2]: 78.6%
- MCH [2]: 21.8 pg
- MCHC [2]: 33.8%
- MCV [2]: 64.6 fL
- Mono [2]: 1.6%
- PT [2]: 15.6 s
- Plat [2]: 130.9 x10_4/uL
- RBC [2]: 596.8 x10_4/ul
- Ret [2]: 8.5%
- WBC [2]: 68.9 x10_2/uL
- KIDNEY_L [2]: 0.9 g
- KIDNEY_R [2]: 0.9 g
- KIDNEY_TOTAL [2]: 1.8 g
- LIVER [2]: 9.4 g
- ALP [3]: 1619.6 IU/L
- ALT [3]: 50.2 IU/L
- AST [3]: 86.4 IU/L
- CRE [3]: 0.2 mg/dL
- DBIL [3]: 0.002 mg/dL
- GLC [3]: 180 mg/dL
- IP [3]: 8.8 mg/dL
- K [3]: 4 meq/L
- LDH [3]: 307.4 IU/L
- Na [3]: 141.6 meq/L
- PL [3]: 125.2 mg/dL
- RALB [3]: 3.1 g/dL
- TBIL [3]: 0.022 mg/dL
- TC [3]: 73 mg/dL
- TG [3]: 64.2 mg/dL
- TP [3]: 5.4 g/dL
- gamma-GTP [3]: 1 IU/L
- TERMINAL_BW [4]: 197.7 g
- Bas [4]: 0%
- Eos [4]: 1%
- Fbg [4]: 277 mg/dL
- Hb [4]: 13.4 g/dL
- Ht [4]: 39.7%
- Lym [4]: 74.2%
- MCHC [4]: 33.7%
- MCV [4]: 65.6 fL
- Mono [4]: 2.6%
- PT [4]: 15.5 s
- Plat [4]: 122.9 x10_4/uL
- RBC [4]: 605 x10_4/ul
- Ret [4]: 8.2%
- WBC [4]: 77.7 x10_2/uL
- KIDNEY_L [4]: 0.9 g
- KIDNEY_R [4]: 0.9 g
- KIDNEY_TOTAL [4]: 1.8 g
- LIVER [4]: 8.6 g
- ALP [5]: 1495.2 IU/L
- ALT [5]: 48.6 IU/L
- AST [5]: 83.4 IU/L
- CRE [5]: 0.2 mg/dL
- DBIL [5]: 0.002 mg/dL
- GLC [5]: 170.8 mg/dL
- IP [5]: 9.6 mg/dL
- K [5]: 4.3 meq/L
- LDH [5]: 244.8 IU/L
- Na [5]: 140.4 meq/L
- PL [5]: 110.6 mg/dL
- RALB [5]: 2.8 g/dL
- TBIL [5]: 0.022 mg/dL
- TC [5]: 63.8 mg/dL
- TG [5]: 57.2 mg/dL
- TP [5]: 5.2 g/dL
- gamma-GTP [5]: 1 IU/L
- TERMINAL_BW [6]: 200.1 g
- APTT [6]: 21.5 s
- Bas [6]: 0%
- Eos [6]: 0.4%
- Fbg [6]: 268.6 mg/dL
- Hb [6]: 13.2 g/dL
- Ht [6]: 39.7%
- Lym [6]: 60.8%
- MCHC [6]: 33.3%
- MCV [6]: 63.6 fL
- Mono [6]: 3%
- Neu [6]: 35%
- PT [6]: 15.8 s
- Plat [6]: 113 x10_4/uL
- RBC [6]: 624.6 x10_4/ul
- Ret [6]: 7.8%
- WBC [6]: 87.7 x10_2/uL
- KIDNEY_L [6]: 0.9 g
- KIDNEY_R [6]: 0.9 g
- KIDNEY_TOTAL [6]: 1.8 g
- LIVER [6]: 8.1 g
- ALP [7]: 1296.6 IU/L
- ALT [7]: 37.4 IU/L
- AST [7]: 69.2 IU/L
- CRE [7]: 0.2 mg/dL
- DBIL [7]: 0.004 mg/dL
- GLC [7]: 180.2 mg/dL
- K [7]: 4.3 meq/L
- LDH [7]: 226.2 IU/L
- Na [7]: 140.6 meq/L
- RALB [7]: 2.8 g/dL
- TBIL [7]: 0.018 mg/dL
- TC [7]: 60.6 mg/dL
- TG [7]: 50.4 mg/dL
- TP [7]: 5 g/dL
- gamma-GTP [7]: 1.2 IU/L
- TERMINAL_BW [8]: 212.3 g
- APTT [8]: 21.5 s
- Bas [8]: 0%
- Eos [8]: 1%
- Fbg [8]: 360 mg/dL
- Hb [8]: 12.9 g/dL
- Ht [8]: 37.8%
- Lym [8]: 66.4%
- MCH [8]: 21.7 pg
- MCHC [8]: 34.3%
- MCV [8]: 63.3 fL
- Mono [8]: 4.2%
- PT [8]: 16.2 s
- Plat [8]: 111.7 x10_4/uL
- RBC [8]: 596.8 x10_4/ul
- Ret [8]: 7.5%
- KIDNEY_L [8]: 0.9 g
- KIDNEY_R [8]: 1 g
- KIDNEY_TOTAL [8]: 1.9 g
- ALP [9]: 1263 IU/L
- ALT [9]: 41.4 IU/L
- AST [9]: 69.2 IU/L
- CRE [9]: 0.2 mg/dL
- Ca [9]: 10.4 mg/dL
- DBIL [9]: 0 mg/dL
- GLC [9]: 182.8 mg/dL
- IP [9]: 7.6 mg/dL
- K [9]: 4.3 meq/L
- LDH [9]: 210.6 IU/L
- Na [9]: 141.8 meq/L
- PL [9]: 145.2 mg/dL
- RALB [9]: 2.7 g/dL
- TBIL [9]: 0.002 mg/dL
- TC [9]: 77 mg/dL
- TG [9]: 141.2 mg/dL
- TP [9]: 5 g/dL
- gamma-GTP [9]: 1.4 IU/L
- TERMINAL_BW [10]: 201.6 g
- APTT [10]: 20.6 s
- Bas [10]: 0%
- Eos [10]: 0.8%
- Fbg [10]: 281.4 mg/dL
- Hb [10]: 13.2 g/dL
- Ht [10]: 39.2%
- Lym [10]: 77.2%
- MCH [10]: 21.6 pg
- MCHC [10]: 33.7%
- MCV [10]: 64.2 fL
- Mono [10]: 1.6%
- Neu [10]: 19.8%
- PT [10]: 15.7 s
- Plat [10]: 118.2 x10_4/uL
- RBC [10]: 610.8 x10_4/ul
- Ret [10]: 8.1%
- WBC [10]: 69.4 x10_2/uL
- KIDNEY_L [10]: 0.9 g
- KIDNEY_R [10]: 0.9 g
- KIDNEY_TOTAL [10]: 1.8 g
- LIVER [10]: 8.7 g
- ALP [11]: 1604.2 IU/L
- ALT [11]: 52.2 IU/L
- AST [11]: 80.4 IU/L
- CRE [11]: 0.2 mg/dL
- DBIL [11]: 0 mg/dL
- GLC [11]: 162 mg/dL
- IP [11]: 9.7 mg/dL
- K [11]: 4 meq/L
- LDH [11]: 264.8 IU/L
- Na [11]: 140.6 meq/L
- RALB [11]: 2.7 g/dL
- TBIL [11]: 0.026 mg/dL
- TC [11]: 69.8 mg/dL
- TG [11]: 37.8 mg/dL
- TP [11]: 5.3 g/dL
- gamma-GTP [11]: 1.4 IU/L
- TERMINAL_BW [12]: 200.3 g
- APTT [12]: 21 s
- Bas [12]: 0%
- Eos [12]: 1%
- Fbg [12]: 283.4 mg/dL
- Hb [12]: 13.2 g/dL
- Ht [12]: 39.3%
- Lym [12]: 72.2%
- MCH [12]: 21.5 pg
- MCHC [12]: 33.7%
- MCV [12]: 63.9 fL
- Mono [12]: 2.6%
- Neu [12]: 23.4%
- PT [12]: 15.5 s
- Plat [12]: 116.4 x10_4/uL
- RBC [12]: 614.8 x10_4/ul
- Ret [12]: 8.2%
- WBC [12]: 67.5 x10_2/uL
- KIDNEY_L [12]: 0.9 g
- KIDNEY_R [12]: 0.9 g
- KIDNEY_TOTAL [12]: 1.8 g
- LIVER [12]: 8.2 g
- ALP [13]: 1535.4 IU/L
- ALT [13]: 48.8 IU/L
- AST [13]: 76 IU/L
- CRE [13]: 0.2 mg/dL
- DBIL [13]: 0.006 mg/dL
- GLC [13]: 172.8 mg/dL
- IP [13]: 9.9 mg/dL
- K [13]: 4.2 meq/L
- LDH [13]: 246.4 IU/L
- Na [13]: 140.2 meq/L
- RALB [13]: 2.9 g/dL
- TBIL [13]: 0.016 mg/dL
- TC [13]: 62.6 mg/dL
- TG [13]: 51.8 mg/dL
- TP [13]: 5.3 g/dL
- gamma-GTP [13]: 1 IU/L
- TERMINAL_BW [14]: 204.9 g
- APTT [14]: 21.6 s
- Bas [14]: 0%
- Eos [14]: 0.6%
- Fbg [14]: 261.4 mg/dL
- Ht [14]: 39.8%
- Lym [14]: 63.4%
- MCH [14]: 21.3 pg
- MCHC [14]: 33.3%
- MCV [14]: 63.8 fL
- Mono [14]: 3%
- Neu [14]: 32.8%
- PT [14]: 15.6 s
- Plat [14]: 120.1 x10_4/uL
- RBC [14]: 624.4 x10_4/ul
- Ret [14]: 7.8%
- WBC [14]: 76.3 x10_2/uL
- KIDNEY_L [14]: 0.9 g
- KIDNEY_R [14]: 0.9 g
- KIDNEY_TOTAL [14]: 1.8 g
- LIVER [14]: 8.2 g
- ALP [15]: 1623.8 IU/L
- ALT [15]: 43.4 IU/L
- AST [15]: 73 IU/L
- CRE [15]: 0.2 mg/dL
- DBIL [15]: 0.006 mg/dL
- GLC [15]: 180.4 mg/dL
- IP [15]: 10.2 mg/dL
- K [15]: 4.1 meq/L
- LDH [15]: 257 IU/L
- Na [15]: 140.8 meq/L
- PL [15]: 97.4 mg/dL
- RALB [15]: 2.8 g/dL
- TBIL [15]: 0.016 mg/dL
- TC [15]: 53.6 mg/dL
- TG [15]: 46.4 mg/dL
- TP [15]: 5 g/dL
- gamma-GTP [15]: 1 IU/L
- TERMINAL_BW [16]: 209.2 g
- APTT [16]: 21.1 s
- Bas [16]: 0%
- Eos [16]: 0.6%
- Fbg [16]: 375.8 mg/dL
- Hb [16]: 13.1 g/dL
- Ht [16]: 38.2%
- Lym [16]: 57.2%
- MCHC [16]: 34.3%
- MCV [16]: 61.7 fL
- Mono [16]: 4.2%
- Neu [16]: 36.2%
- PT [16]: 16.1 s
- RBC [16]: 619.4 x10_4/ul
- Ret [16]: 6.8%
- KIDNEY_L [16]: 0.9 g
- KIDNEY_R [16]: 1 g
- KIDNEY_TOTAL [16]: 1.9 g
- LIVER [16]: 10.1 g
- ALP [17]: 1531.4 IU/L
- ALT [17]: 44 IU/L
- AST [17]: 72.6 IU/L
- CRE [17]: 0.2 mg/dL
- DBIL [17]: 0.004 mg/dL
- GLC [17]: 175.2 mg/dL
- IP [17]: 7.5 mg/dL
- K [17]: 4.3 meq/L
- LDH [17]: 212.4 IU/L
- Na [17]: 141 meq/L
- PL [17]: 129.4 mg/dL
- RALB [17]: 2.7 g/dL
- TBIL [17]: 0.002 mg/dL
- TG [17]: 104.2 mg/dL
- TP [17]: 4.9 g/dL
- gamma-GTP [17]: 1 IU/L

Source: ChEMBL document CHEMBL3885861, “Open TG-GATES”
